Values quoted from earlier work, collected in publication PMC12304285 (British Journal of Cancer, 2025).

Test system: patients with advanced solid tumours
Parameters: method as in PMID 33230210
Details: single-agent trial; cited from earlier work

For `COc1ccc([C@@H](O)c2cc(-c3ncnc4cc(N5CCOCC5)ccc34)c(F)cc2Cl)nn1` [peposertib], the “anaemia or myelosuppressive TEAEs” value is listed as “Neither anaemia nor myelosuppressive TEAEs were reported”.
